According to publication PMC12408683 (Archives of Toxicology, 2025):
Like-named read-outs stand apart in the source and are kept apart here.

Legend:
HepG2-CYP1A2 cells = conditions: ES 24 h + 72 h recovery; not statistically significant; concentration not given
Protocol: Following the recovery time, the cells were detached, harvested by centrifugation (300 g, 5 min), and washed with PBS. […] The fluorescent dye was then activated by photolysis (60 W lightbulb, 30 cm spacing) for 20 min before addition of 9 mL PBS to remove unbound dye. […] 1.5 × 10^4 cells were analysed using the BD FACSDiva software (BD Biosciences, Heidelberg, Germany). A schematic overview of the gating strategy is provided in the supporting information, Fig. 3.

rats = system: rats; parameters: method as in Nesslany et al. 2010; conditions: up to 2 g ES/kg bw by oral gavage; ref Nesslany et al. 2010; cited from earlier work
HepG2 cells [1] = conditions: for MN formation, increase (flow cytometry): 24 h + 72 h recovery
Protocol: DMSO served as solvent control, while MMC was used as a positive control. […] Following the recovery time, the cells were detached, harvested by centrifugation (300 g, 5 min), and washed with PBS. […] The fluorescent dye was then activated by photolysis (60 W lightbulb, 30 cm spacing) for 20 min before addition of 9 mL PBS to remove unbound dye. […] 1.5 × 10^4 cells were analysed using the BD FACSDiva software (BD Biosciences, Heidelberg, Germany).
As benchmark response (BMR) for all concentration–response curves (adducts, micronuclei), a 2.0-fold increase vs. solvent control was used (BMC100, critical effect size = 1).

HepG2 cells [2] = system: HepG2 cells; parameters: method as in Yang et al. 2022; conditions: MTT assay; ref Yang et al. 2022; cited from earlier work
[3] = endpoint MN (FCM), BMR 2.0-fold increase, 90% CI

Compound | MN formation, increase vs. solvent control (flow cytometry) (HepG2-CYP1A2 cells) [fold] | MN levels, study outcome (rats) | MN formation, increase (flow cytometry) (HepG2 cells [1]; 25 µM 1′OH-ES) | MN formation, increase (flow cytometry) (HepG2 cells [1]; 50 µM 1′OH-ES) [fold] | concentrations at which clastogenicity was observed (HepG2 cells [1]; CBMN and MN flow assay) [µM] | BMC100 (HepG2 cells [1]; endpoint MN (FCM), BMR 2.0-fold increase) [µM] | BMCL (HepG2 cells [1]; [3]) [µM] | BMCU (HepG2 cells [1]; [3]) [µM] | EC50 (HepG2 cells [2]) [µM]
C=CCc1ccc(OC)cc1 [ES, estragole] | 1.6 | negative |  |  |  |  |  |  | 
C=CC(O)c1ccc(OC)cc1 (stereo not drawn) [1′OH-ES, 1′-hydroxyestragole] |  |  | twofold | 4.6 | ≥ 25 | 29.8 | 21.1 | 37.6 | 102
